From US7351857B2, “Methods of using substituted tetralins and indanes” (Janssen Pharmaceutica N.V., priority 2002, dated 2008)

The molecules below were run against T1, PPARγ (Homo sapiens, UniProt P37231) (assay: aP2 assay for PPAR gamma agonists (bDNA aP2 mRNA in preadipocytes)). Conditions: unbracketed values; PPARγ standard FI = 70.3.
T1 construct: Following the challenge of the preadipocytes, cells may be lysed with lysis buffer; endogenous in cells; host or cells: preadipocytes
T1 sequence (P37231 1-505): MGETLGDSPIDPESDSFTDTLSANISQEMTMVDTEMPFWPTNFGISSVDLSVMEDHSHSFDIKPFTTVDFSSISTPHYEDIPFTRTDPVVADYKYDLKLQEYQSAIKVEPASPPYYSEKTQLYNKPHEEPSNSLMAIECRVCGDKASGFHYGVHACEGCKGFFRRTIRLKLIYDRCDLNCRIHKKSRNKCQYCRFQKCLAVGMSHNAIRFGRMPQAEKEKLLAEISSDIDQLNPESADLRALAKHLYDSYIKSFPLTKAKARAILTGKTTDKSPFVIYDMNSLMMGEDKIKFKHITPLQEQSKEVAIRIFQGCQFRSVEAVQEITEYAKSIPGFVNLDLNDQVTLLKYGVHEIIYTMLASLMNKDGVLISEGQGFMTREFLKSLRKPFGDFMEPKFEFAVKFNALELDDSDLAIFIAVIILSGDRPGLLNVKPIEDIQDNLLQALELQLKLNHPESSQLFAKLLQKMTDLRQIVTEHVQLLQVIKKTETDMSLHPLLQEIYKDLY
Assay type: cell-based
Protocol: The procedure is described in detail in Burris et al., Molecular Endocrinology, 1999, 13:410, which is hereby incorporated by reference in its entirety, and aP2 assay results of agonist intrinsic activity may be presented as fold increase over vehicle in induction of aP2 mRNA production.
Twenty-four hours after the initial seeding of the 96-well plates by hand (around 20,000/well), the differentiation assay may be initiated. Medium may be removed and replaced with 150 μl of differentiation medium containing vehicle (DMSO) or test compounds. Cells may be returned to incubator for 24 hours culture. At the termination of the challenge, medium may be removed and 100 ul of lysis buffer may be added to initiate the bDNA aP2 mRNA assay. The branched DNA assay may be performed according to the manufacturer's protocol (Bayer Diagnostics; Emeryville, Calif.). Result may be expressed as the fold increase of aP2 mRNA production activated over vehicle controls. EC50's and Emax may be determined by non-linear regression with a sigmoidal fit curve.
Following the challenge of the preadipocytes, cells may be lysed with lysis buffer (Bayer Diagnostics) containing the aP2 oligonucleotides. After a 15 minute incubation at 53° C. or 30 minutes at 37° C. incubator, 70 ul of the lysis buffer from each well may be added to a corresponding capture well (preincubated with 70 ul of blocking buffer (Bayer Diagnostics)). The capture plate may be incubated overnight at 53° C. in a plate incubator (Bayer Diagnostics). After this incubation, the bDNA and labeled probes may be annealed as directed by the manufacturer. Following a 30-minute incubation with the luminescent alkaline phosphatase substrate, dioxitane, the luminescence may be quantitated in a Dynex MLX microtiter plate luminometer. Oligonucleotide probes designed to anneal to the aP2 mRNA and function in the bDNA mRNA detection system are designed with ProbeDesigner software (Bayer Diagnostics). This software package analyzes a target sequence of interest with a series of algorithms in order to determine which regions of the sequence can perform as locations for capture, label, or spacer probe annealing. The sequences of the oligonucleotides are as follows: […]

SMILES | PPARγ FI (fold induction)
CC(C)CCN(C(=O)Nc1ccc(C(C)C)cc1)C1Cc2ccc(SC(C)(C)C(=O)O)cc2C1 (stereo not shown) [Example 21, 2-{2-[3-(4-Isopropylphenyl)-1-(3-methylbutyl)ureido]indan-5-ylsulfanyl}-2-methylpropionic acid] | 0.05
CCN(C(=O)Nc1ccc(C(C)C)cc1)C1Cc2ccc(SC(C)(C)C(=O)O)cc2C1 (stereo not shown) [Example 6, 2-{2-[1-Ethyl-3-(4-isopropylphenyl)ureido]indan-5-ylsulfanyl}-2-methylpropionic acid] | 1.9
CCCCCN(C(=O)Nc1ccc(-c2ccccc2)cc1)C1Cc2ccc(SC(C)(C)C(=O)O)cc2C1 (stereo not shown) [Example 12, 2-[2-(3-Biphenyl-4-yl-1-pentylureido)indan-5-ylsulfanyl]-2-methylpropionic acid] | 11
CC(C)CCN(C(=O)Nc1ccc(OC(F)(F)F)cc1)C1Cc2ccc(SC(C)(C)C(=O)O)cc2C1 (stereo not shown) [Example 20, 2-Methyl-2-{2-[1-(3-methylbutyl)-3-(4-trifluoromethoxyphenyl)ureido]indan-5-ylsulfanyl}-2-methylpropionic acid] | 0.44
CCCCN(C(=O)Nc1ccc(SC(F)(F)F)cc1)C1Cc2ccc(SC(C)(C)C(=O)O)cc2C1 (stereo not shown) [Example 17, 2-Methyl-2-{2-[1-butyl-3-(4-trifluoromethylsulfanylphenyl)ureido]indan-5-ylsulfanyl}propionic acid] | 0.43
CCN(C(=O)Nc1ccc(SC(F)(F)F)cc1)C1Cc2ccc(SC(C)(C)C(=O)O)cc2C1 (stereo not shown) [Example 4, 2-{2-[1-Ethyl-3-(4-trifluoromethylsulfanylphenyl)ureido]indan-5-ylsulfanyl}-2-methylpropionic acid] | 3.7
CCCN(C(=O)Nc1ccc(OC(F)(F)F)cc1)C1Cc2ccc(SC(C)(C)C(=O)O)cc2C1 (stereo not shown) [Example 16, 2-Methyl-2-{2-[1-propyl-3-(4-trifluoromethoxyphenyl)ureido]indan-5-ylsulfanyl}propionic acid] | 0.37
CCCCCN(C(=O)Nc1ccc(C(C)C)cc1)C1Cc2ccc(SC(C)(C)C(=O)O)cc2C1 (stereo not shown) [Example 10, 2-{2-[3-(4-Isopropylphenyl)-1-(pentyl)ureido]indan-5-ylsulfanyl}-2-methylpropionic acid] | 5.1

The remaining lines, values ahead:

PPARγ FI (fold induction) | SMILES
0.31 | CC(C)(Sc1ccc2c(c1)CC(NC(=O)Nc1ccc(OC(F)(F)F)cc1)C2)C(=O)O (stereo not shown) [Example 18, 2-Methyl-2-{2-[3-(4-trifluoromethoxyphenyl)ureido]indan-5-ylsulfanyl}propionic acid]
1.2 | CCCCCCN(C(=O)Nc1ccc(C(C)C)cc1)C1Cc2ccc(SC(C)(C)C(=O)O)cc2C1 (stereo not shown) [Example 13, 2-{2-[3-(4-Isopropylphenyl)-1-(hexyl)ureido]indan-5-ylsulfanyl}-2-methylpropionic acid]
6.1 | CCCCCN(C(=O)Nc1ccc(C(C)(C)C)cc1)C1Cc2ccc(SC(C)(C)C(=O)O)cc2C1 (stereo not shown) [Example 11, 2-{2-[3-(4-tert-butylphenyl)-1-(pentyl)ureido]indan-5-ylsulfanyl}-2-methylpropionic acid]

What follows are molecules tested against T2, PPARδ (Homo sapiens, UniProt Q03181) (assay: Transfection assay for PPARδ receptors (PPAR-Gal4 / Gal4-luciferase reporter in HEK293 cells)). Conditions: bracketed values.
T2 sequence (Q03181 171-441 limits assumed): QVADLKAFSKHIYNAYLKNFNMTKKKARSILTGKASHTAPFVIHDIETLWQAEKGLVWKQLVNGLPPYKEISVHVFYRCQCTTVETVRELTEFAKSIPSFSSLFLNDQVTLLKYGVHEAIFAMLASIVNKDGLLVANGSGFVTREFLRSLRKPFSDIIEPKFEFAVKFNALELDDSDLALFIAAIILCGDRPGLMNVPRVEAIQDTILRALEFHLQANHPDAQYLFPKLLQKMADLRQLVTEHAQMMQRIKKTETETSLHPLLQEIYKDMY
Assay type: cell-based
Protocol: HEK293 cells were grown in DMEM/F-12 Media supplemented with 10% FBS and glutamine (GIBCOBRL). The cells were co-transfected with DNA for PPAR-Gal4 receptor and Gal4-Luciferase Reporter using the DMRIE-C Reagent. On the following day, the DNA-containing medium were replaced with 5% Charcoal treated FBS growth medium. After six hours, cells were seeded in 96 well plate and incubated at 37° C. in CO2 incubator overnight. Cells were challenged by test compounds and incubated for 24 hours at 37° C. in 5% CO2 incubator. Luciferase activity was assayed using the Steady-Glo Luciferase Assay Kit from Promega. DMRIE-C Reagent was purchased from GIBCO Cat. No. 10459-014. OPTI-MEM I Reduced Serum Medium was purchased from GIBCO Cat. No. 31985. Steady-Glo Luciferase Assay Kit was obtained from Promega Part# E254B.

EC50 [µM] | SMILES
> 3 | CCN(C(=O)Nc1ccc(C(C)(C)C)cc1)C1CCc2cc(SC(C)(C)C(=O)O)c(OC)cc2C1 (stereo not shown) [Example 49, 2-{6-[3-(4-tert-Butylphenyl)1-ethylureido]-3-methoxy-5,6,7,8-tetrahydronaphthalen-2-ylsulfanyl}-2-methyl propionic acid]

Same assay, conditions: unbracketed values, PPARδ standard FI = 36.1

SMILES | PPARδ FI (fold induction)
C=CCCCN(C(=O)Nc1ccc(OC(F)(F)F)cc1)C1Cc2ccc(SC(C)(C)C(=O)O)cc2C1 (stereo not shown) [Example 19, 2-Methy-2-{2-[1-pent-4-enyl-3-(4-trifluoromethoxyphenyl)ureido]indan-5-ylsulfanyl}propionic acid] | 1.4
CC(C)(Sc1ccc2c(c1)CC(N(CCCC1CCCC1)C(=O)Nc1ccccc1)C2)C(=O)O (stereo not shown) [Example 37, 2-{2-[1-(3-Cyclopentylpropyl)-3-phenylureido]indan-5-ylsulfanyl}-2-methylpropionic acid] | 1.9
CCN(C(=O)Nc1ccc(N(C)C)cc1)C1Cc2ccc(SC(C)(C)C(=O)O)cc2C1 (stereo not shown) [Example 7, 2-{2-[3-(4-Dimethylaminophenyl)-1-ethylureido]indan-5-ylsulfanyl}-2-methylpropionic acid] | 0.8
CCN(C(=O)Nc1ccc(C(C)C)cc1)C1Cc2ccc(SC(C)(C)C(=O)O)cc2C1 (stereo not shown) [Example 6, 2-{2-[1-Ethyl-3-(4-isopropylphenyl)ureido]indan-5-ylsulfanyl}-2-methylpropionic acid] | 3.6
CCCN(C(=O)Nc1ccc(C(F)(F)F)cc1)C1Cc2ccc(SC(C)(C)C(=O)O)cc2C1 (stereo not shown) [Example 35, 2-Methyl-2-{2-[1-propyl-3-(4-trifluoromethylphenyl)ureido]indan-5-ylsulfanyl}-propionic acid] | 5.6
CCCCCCN(C(=O)Nc1ccc(SC(F)(F)F)cc1)C1Cc2ccc(SC(C)(C)C(=O)O)cc2C1 (stereo not shown) [Example 15, 2-Methyl-2-{2-[1-hexyl-3-(4-trifluoromethylsulfanylphenyl)ureido]indan-5-ylsulfanyl}propionic acid] | 1.2
CCN(C(=O)Nc1cccc(OC(F)(F)F)c1)C1Cc2ccc(SC(C)(C)C(=O)O)cc2C1 (stereo not shown) [Example 26, 2-{2-[1-Ethyl-3-(3-trifluoromethoxyphenyl)ureido]indan-5-ylsulfanyl}-2-methylpropionic acid] | 2.1

Results, then the molecule that gave them:

PPARδ FI (fold induction) | SMILES
0.8 | CCCN(C(=O)Nc1cc(C)cc(C)c1)C1Cc2ccc(SC(C)(C)C(=O)O)cc2C1 (stereo not shown) [Example 33, 2-{2-[3-(3,5-Dimethylphenyl)-1-propylureido]indan-5-ylsulfanyl}-2-methylpropionic acid]
6.0 | CCCN(C(=O)Nc1ccc(OC(F)(F)F)cc1)C1CCc2ccc(SC(C)(C)C(=O)O)cc2C1 (stereo not shown) [Example 46, 2-Methyl-2-{7-[1-propyl-3-(4-trifluoromethoxyphenyl)ureido}-5,6,7,8-tetrahydronaphthalen-2-ylsulfanyl}propionic acid]
8.2 | CC(C)(Sc1ccc2c(c1)CC(N(CCCC1CCCC1)C(=O)Nc1ccc(OC(F)(F)F)cc1)C2)C(=O)O (stereo not shown) [Example 28, 2-{2-[1-(3-Cyclopentylpropyl)-3-(4-trifluoromethoxyphenyl)ureido]indan-5-ylsulfanyl}-2-methylpropionic acid]
9.3 | CCCCCN(C(=O)Nc1ccc2ccccc2c1)C1Cc2ccc(SC(C)(C)C(=O)O)cc2C1 (stereo not shown) [Example 39, 2-Methyl-2-[2-(3-naphthalen-2-yl-1-pentylureido)indan-5-ylsulfanyl]propionic acid]
1.5 | CCCN(C(=O)Nc1ccc(OC)cc1)C1Cc2ccc(SC(C)(C)C(=O)O)cc2C1 (stereo not shown) [Example 32, 2-{2-[3-(4-Methoxyphenyl)-1-propylureido]indan-5-ylsulfanyl}-2-methylpropionic acid]
4.5 | CCN(C(=O)Nc1ccc(OC(F)(F)F)c(Br)c1)C1Cc2ccc(SC(C)(C)C(=O)O)cc2C1 (stereo not shown) [Example 25, 2-{2-[3-(3-Bromo-4-trifluoromethoxyphenyl)-1-ethylureido]indan-5-ylsulfanyl}-2-methylpropionic acid]
